Legend:
[1] = test system: global histone H3 acetylation in WM983A cells; experiment: histone H3 acetylation Western blot in WM983A; assay type: cell-based, human; details: 6 hours, increasing doses
Method: Cells were treated with each compound for 24 hours, and proliferation was measured via ^3H-thymidine incorporation. […] Nuclear lysates were subjected to Western blot analysis for acetylated H3 (Upstate 06-599). Total H3 (Abeam ab1791) was blotted as a loading control.

[2] = target: T1, MOZ histone acetyltransferase (Homo sapiens, UniProt Q92794); experiment: MOZ direct radioactive HAT assay; assay type: biochemical; details: 10 μM compound; read-out: Percent inhibition of acetyltransferase, Moz
T1 construct: made in house
T1 sequence (Q92794 497-780 limits assumed): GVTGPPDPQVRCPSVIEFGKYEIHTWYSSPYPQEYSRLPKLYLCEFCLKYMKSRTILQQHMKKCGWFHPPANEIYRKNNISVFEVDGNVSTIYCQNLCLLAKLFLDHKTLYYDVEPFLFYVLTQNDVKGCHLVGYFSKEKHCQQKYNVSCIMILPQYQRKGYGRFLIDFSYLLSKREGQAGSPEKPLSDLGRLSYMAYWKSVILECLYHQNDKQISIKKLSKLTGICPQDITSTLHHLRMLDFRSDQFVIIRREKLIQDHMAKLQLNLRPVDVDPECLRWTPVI
Method: (§1) PCAF reactions were performed in 100 mM HEPES, pH 7.9, and contained 200 μM TPP, 5 mM MgCl2, 1 mM DTT, 50 mM NaCl, 0.05 mg/mL BSA, 200 μM NAD, 2.4 mM α-KG, 30 μM acetyl-CoA, 0.037 units α-KGDH, 3.3% DMSO, and 10 μM inhibitor. Reactions took place at 30° C. Reactions were initiated by addition of 10 nM PCAF and were followed at 340 nm over the linear portion of the curve below 10% turnover. AANAT reactions were performed in 100 mM NH4 OAc, pH 6.8, and contained 200 μM TPP, 5 mM MgCl2, 1 mM DTT, 50 mM NaCl, 0.05 mg/mL BSA, 200 μM NAD, 2.4 mM α-KG, 200 μM AcCoA, 0.1 units α-KGDH, 3.3% DMSO, and 10 μM inhibitor. Reactions took place at 25° C. Reactions were initiated with addition of 65 nM AANAT, and followed at 340 nm, as above. Percent inhibition values were compared to those with p300, which were repeated using the protocol given above. […]
(§2) HAT assays with yeast GCN5, SAS complex, MOZ, and Rtt109/Vps75 complex used the direct radioactive assay described above. […] The amount of enzyme used in each assay was estimated by comparing Coomassie Blue staining of samples with bovine serum albumin standards, analyzed by SDS-PAGE. […] The rate of ^14C-incorporation into histone H3 was quantified by autoradiography. […]

[3] = test system: melanoma cell lines from varying stages of progression; experiment: 3H-thymidine incorporation, melanoma lines of varying stages; assay type: cell-based; details: 24 hours
Method: Proliferation was measured via ^3H-thymidine incorporation.

[4] = test system: WM983A melanoma cells; experiment: cell cycle analysis, propidium iodide FACS; assay type: cell-based, human; details: 48 hours
Method: The degree of growth arrest observed in these experiments corresponds with the decrease in ^3H-thymidine incorporation described above.
Cells treated with C646 or DMSO were stained with propidium iodide (PI). Briefly, equal number of cells (greater than 10 6) in 0.5 ml PBS were fixed in 70% ethanol for at least 2 h at 4° C. A stock staining solution containing 10 ml of 0.1% Triton X-100 in PBS, 400 μl of RNase cocktail (equivalent of −200 units of RNase A) (Ambion), and 200 μl of 1 mg/ml PI was prepared. Fixed cells were spun at 200 g for 5 min (Beckman Coulter Allegra® X-12R, with an SX4750A rotor), re-hydrated in 5 ml PBS, and spun again to remove all traces of ethanol. Cells were stained with 1 ml staining solution for 20 min at 37° C., then immediately analyzed on a FACSCalibur flow cytometer (BD Biosciences) at the Johns Hopkins Flow Cytometry Core Facility. Data acquisition and analysis were performed with the CellQuest software (BD). WinMDI 2.9 (http://facs.scripps.edu.software.html) was also used for data presentation.

[5] = target: T2, Rtt109/Vps75 complex (Saccharomyces cerevisiae, UniProt Q07794); experiment: Rtt109 direct radioactive HAT assay; assay type: biochemical; details: 10 μM compound; read-out: Percent inhibition of acetyltransferase, Rtt109
T2 construct: made in house
T2 sequence (Q07794 whole entry): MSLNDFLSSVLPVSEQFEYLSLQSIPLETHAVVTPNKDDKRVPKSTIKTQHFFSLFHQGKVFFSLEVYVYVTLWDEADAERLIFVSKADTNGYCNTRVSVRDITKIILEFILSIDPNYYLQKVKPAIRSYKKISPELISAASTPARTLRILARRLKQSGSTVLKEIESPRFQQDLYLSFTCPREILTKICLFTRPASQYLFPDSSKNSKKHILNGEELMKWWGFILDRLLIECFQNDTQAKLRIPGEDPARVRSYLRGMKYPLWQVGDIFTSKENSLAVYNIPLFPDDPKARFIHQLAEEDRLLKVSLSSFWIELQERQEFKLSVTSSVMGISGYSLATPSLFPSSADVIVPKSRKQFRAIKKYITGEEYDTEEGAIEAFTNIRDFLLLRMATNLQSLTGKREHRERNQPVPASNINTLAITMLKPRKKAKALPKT
T2 sequence (P53853 whole entry partner): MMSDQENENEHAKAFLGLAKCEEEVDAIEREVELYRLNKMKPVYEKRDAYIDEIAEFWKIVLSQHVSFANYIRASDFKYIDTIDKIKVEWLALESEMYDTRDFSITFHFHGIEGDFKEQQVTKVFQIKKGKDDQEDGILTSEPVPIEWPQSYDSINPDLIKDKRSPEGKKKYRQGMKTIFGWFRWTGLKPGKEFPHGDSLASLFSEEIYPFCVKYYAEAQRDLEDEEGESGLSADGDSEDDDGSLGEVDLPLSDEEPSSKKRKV
Method: as §1, §2

[6] = reaction with beta-mercaptoethanol (absorbance spectrum); assay type: physicochemical; details: 10 mM beta-mercaptoethanol, up to one hour

inhibition at 10 µM [2]: < 10%
inhibition at 10 µM [5]: < 10%
reaction with thiol (adduct formation) [6]: no evidence of reaction
SMILES: CC1=NN(c2ccc(C(=O)O)cc2)C(=O)C1=Cc1ccc(-c2cc(C)c(C)cc2[N+](=O)[O-])o1 [Compound C646, 4-(4,5-dihydro-3-methyl-4-((5-(4,5-dimethyl-2-nitrophenyl)furan-2-yl)methylene)-5-oxopyrazol-1-yl)benzoic acid]
global histone H3 acetylation [1]: dose-dependent reduction
3H-thymidine incorporation [3]: reduced ^3H-thymidine incorporation
cell cycle distribution [4]: decreased the number of cells in S and G2 phase

— US9005670B2, “Use of histone acetyltransferase inhibitors as novel anti-cancer therapies” (The Johns Hopkins University, priority 2010, dated 2015)
